In patent US20100009907A1, “Glucagon-Like Peptides and Uses Thereof” (AMYLIN PHARMACEUTICALS, INC., priority 2006, published 2010):
Where no end group is shown, it is not given here.

Tests used:
[1] = Acute food intake assay (FI Assay); assay type: in vivo, NIH/Swiss mice; details: 1000 μg/kg intraperitoneal, relative to vehicle
Method: The effect of various test peptides on food intake is investigated using an acute food intake assay. This assay measures food consumption in lean, group-housed, overnight-fasted NIH/Swiss mice. Twelve mice are housed three to a cage. […] Decreased, as well as increased, food intake is measured. Testing of the various doses of the polypeptide generates ED50s.
Female NIH/Swiss mice (8-24 weeks old) are group housed with a 12:12 hour light:dark cycle with lights on at 0600. Water and a standard pelleted mouse chow diet are available ad libitum, except as noted. Animals are fasted starting at approximately 1500 hrs, 1 day prior to experiment. The morning of the experiment, animals are divided into experimental groups.
At time=0 min, all animals are given an intraperitoneal injection of vehicle or compound in an amount ranging from about 63 to 1000 μg/kg, and immediately given a pre-weighed amount (10-15 g) of the standard chow.

[2] = target: T1, GLP-1 receptor (RINm5F cell membranes) (Rattus norvegicus, UniProt P32301); test: GLP-1 receptor binding assay (GLP RBA), [125I]GLP-1 displacement; details: [125I]GLP-1 tracer
T1 construct: RINm5F insulinoma cells expressing endogenous GLP-1 receptors; endogenous in cells; host or cells: RINm5F cell membranes
T1 sequence (P32301 22-463): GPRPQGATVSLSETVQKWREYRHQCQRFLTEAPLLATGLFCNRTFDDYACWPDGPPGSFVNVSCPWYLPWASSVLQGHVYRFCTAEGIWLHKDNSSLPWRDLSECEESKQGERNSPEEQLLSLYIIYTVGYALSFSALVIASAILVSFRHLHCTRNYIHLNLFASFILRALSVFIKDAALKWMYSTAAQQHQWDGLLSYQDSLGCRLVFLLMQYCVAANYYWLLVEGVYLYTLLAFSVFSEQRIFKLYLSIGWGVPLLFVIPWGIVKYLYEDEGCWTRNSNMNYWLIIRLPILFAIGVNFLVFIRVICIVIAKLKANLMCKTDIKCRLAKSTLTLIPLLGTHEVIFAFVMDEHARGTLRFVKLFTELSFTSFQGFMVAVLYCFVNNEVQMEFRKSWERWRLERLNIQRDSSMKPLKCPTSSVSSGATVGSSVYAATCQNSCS
Method: Reaction mixtures are filtered through glass filter pads presoaked with 0.3% PEI solution and rinsed with ice-cold phosphate buffered saline. Bound counts are determined using a scintillation counter. Binding affinities are calculated using GraphPad Prism software (GraphPad Software, Inc., San Diego, Calif.).

[3] = target: T2, rat thyroid carcinoma 6-23 clone 6 cells expressing endogenous GLP-1 receptors (Rattus norvegicus, UniProt P32301); test: GLP-1 cAMP (6-23) cyclase assay; assay type: cell-based
T2 construct: rat thyroid carcinoma 6-23 clone 6 cells or RINm5F insulinoma cells expressing endogenous GLP-1 receptors; endogenous in cells; host or cells: rat thyroid carcinoma 6-23 clone 6 cells
T2 sequence (P32301 22-463): T1 sequence (P32301 22-463)
Method: (§1) Cells, and peptide or buffer solutions are combined in 384-well plates and incubated at room temperature in air for 30-minutes. cAMP content can then be measured according to recommendations in the Perkin-Elmer AlphaScreen™ kit instructions using the Perkin Elmer Fusion fluorimeter and data are analyzed using XLfit software (IDBS).

[4] = target: T3, RINm5f cells expressing endogenous GLP-1, calcitonin, and GIP receptors (Rattus norvegicus, UniProt P32301); test: GLP/GIP/CT cAMP (RIN) assay; assay type: cell-based
T3 construct: RINm5f cells expressing endogenous GLP-1, calcitonin, and GIP receptors; endogenous in cells; host or cells: RINm5f cells
T3 sequence (P32301 22-463): T1 sequence (P32301 22-463)
Method: In addition, receptor binding can be measured using cells prepared from confluent cultures of RINm5f cells expressing endogenous GLP-1, calcitonin, and GIP receptors. Cells, and peptide or buffer solution are combined in 384-well plates. After a 30-minute incubation at room temperature in air, cAMP content is measured as recommended in the Perkin-Elmer AlphaScreen kit instructions.
as §1

[5] = target: DPP-IV (Homo sapiens, UniProt P27487); test: Stability by DPP IV assay; assay type: in vitro ADME; details: isolated DPP-IV enzyme, DPP-IV approximately 5 mUnit, 37° C., intact peptide remaining, read-out: DDP IV % Stable
Chain of DPP-IV (P27487 whole entry, species assumed): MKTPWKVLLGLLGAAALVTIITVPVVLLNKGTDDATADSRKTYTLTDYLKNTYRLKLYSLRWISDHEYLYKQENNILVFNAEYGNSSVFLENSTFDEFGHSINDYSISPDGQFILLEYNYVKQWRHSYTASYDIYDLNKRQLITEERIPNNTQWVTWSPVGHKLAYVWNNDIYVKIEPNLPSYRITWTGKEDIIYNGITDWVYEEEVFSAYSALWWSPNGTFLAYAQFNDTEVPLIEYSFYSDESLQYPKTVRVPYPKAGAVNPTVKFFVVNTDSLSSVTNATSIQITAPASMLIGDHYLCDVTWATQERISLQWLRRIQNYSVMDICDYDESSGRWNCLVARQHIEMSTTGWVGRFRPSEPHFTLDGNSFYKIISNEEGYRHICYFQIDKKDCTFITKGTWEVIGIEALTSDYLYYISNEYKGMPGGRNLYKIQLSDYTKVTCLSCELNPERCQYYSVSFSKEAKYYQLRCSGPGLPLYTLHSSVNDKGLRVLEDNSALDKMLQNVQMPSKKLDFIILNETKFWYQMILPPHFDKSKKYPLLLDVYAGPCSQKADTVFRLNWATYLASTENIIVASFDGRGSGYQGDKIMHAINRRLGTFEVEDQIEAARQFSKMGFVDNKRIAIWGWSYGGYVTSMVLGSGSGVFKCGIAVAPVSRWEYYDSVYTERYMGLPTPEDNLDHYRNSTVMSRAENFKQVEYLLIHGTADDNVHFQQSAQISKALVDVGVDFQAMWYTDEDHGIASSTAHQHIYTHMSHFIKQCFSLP
Method: DPP-IV, approximately 5 mUnit in 5 mM Tris-HCl was added to 625 μL HEPES buffer (25 mM) in a 1.5 mL polypropylene microcentrifuge tube with an O-ring seal to prevent evaporation. Peptide stock solution, 70 μL (300 μM in 50% acetonitrile) was carefully added to this and mixed by brief manual shaking. Next, the solution was aliquoted into six tubes (6×100 μl. One tube contained 200 μL Stop solution (50% acetonitrile and 1% formic acid) that was used to determine the initial concentration of peptide (t=0). All six aliquots were then incubated at 37° C. while mixing at 500 RPM in the Vortemp 56 incubator. The digestion was stopped at 10 min intervals by adding 200 μL stop solution. The tube was then placed back into the incubator for 50 min. The solution was centrifuged at 19000×g for 10 minutes at room temperature. The supernatant was removed and 200 μL supernatant was transferred to an autosampler vials for analysis.
The most intense ion of the intact peptide was monitored to determine the rates of degradation and to quantify the amount of intact peptide remaining in the solution.

| Compound | Food Intake % inhibition 30 min [1] [%] | Food Intake % inhibition 60 min [1] [%] | Food Intake % inhibition 120 min [1] [%] | EC50 [3] [nM] | also measured |
| --- | --- | --- | --- | --- | --- |
| CC[C@H](C)[C@H](NC(=O)[C@H](Cc1ccccc1)NC(=O)[C@H](CCC(=O)O)NC(=O)[C@H](CCCCN)NC(=O)[C@H](C)NC(=O)[C@H](C)NC(=O)[C@H](CCC(N)=O)NC(=O)CNC(=O)[C@H](CCC(=O)O)NC(=O)[C@H](CC(C)C)NC(=O)[C@H](Cc1ccc(O)cc1)NC(=O)[C@H](CO)NC(=O)[C@H](CO)NC(=O)[C@@H](NC(=O)[C@H](CC(=O)O)NC(=O)[C@H](CO)NC(=O)[C@@H](NC(=O)[C@H](Cc1ccccc1)NC(=O)[C@@H](NC(=O)CNC(=O)[C@H](CCC(=O)O)NC(=O)[C@H](C)NC(=O)[C@@H](N)Cc1c[nH]cn1)[C@@H](C)O)[C@@H](C)O)C(C)C)C(=O)N[C@@H](C)C(=O)N[C@@H](Cc1c[nH]c2ccccc12)C(=O)N[C@@H](CC(C)C)C(=O)N[C@H](C(=O)N[C@@H](CCCCN)C(=O)NCC(=O)N[C@@H](CCCNC(=N)N)C(N)=O)C(C)C [compound 3] | 13 | 13 | 11 |  |  |
| EGTYTNDVTEYLEEKAAKEFIEWLIKGKPKKIRYS-NH2 (C-terminus assumed) [compound 37] |  |  |  | > 1000 | IC50 [2]: 22 nM |
| HAEFTYTNDVTEYLEEKAAKEFIEWLIKGGPSSGAPPPS-NH2 [compound 19] | 51 | 67 | 75 |  | Food Intake % inhibition 180 min [1]: 77% |
| HAEGTYTNDTEYLEEKAAKEFIEWLIKGKPKKIRYS-NH2 (C-terminus assumed) [compound 39] |  |  |  | > 1000 |  |
| CC[C@H](C)[C@H](NC(=O)[C@H](CC(C)C)NC(=O)[C@H](Cc1c[nH]c2ccccc12)NC(=O)[C@H](CC(=O)O)NC(=O)[C@@H](NC(=O)[C@H](Cc1ccccc1)NC(=O)[C@H](CCC(=O)O)NC(=O)[C@H](CCCCN)NC(=O)[C@H](C)NC(=O)[C@H](C)NC(=O)[C@H](CCCCN)NC(=O)[C@H](CCC(=O)O)NC(=O)[C@H](CC(=O)O)NC(=O)[C@H](CC(C)C)NC(=O)[C@H](CCC(N)=O)NC(=O)[C@H](CCC(N)=O)NC(=O)[C@@H](NC(=O)[C@@H](NC(=O)[C@H](CC(=O)O)NC(=O)[C@H](CO)NC(=O)[C@@H](NC(=O)[C@H](Cc1ccccc1)NC(=O)[C@@H](NC(=O)CNC(=O)[C@H](CCC(=O)O)NC(=O)[C@H](C)NC(=O)[C@@H](N)Cc1c[nH]cn1)[C@@H](C)O)[C@@H](C)O)C(C)C)[C@@H](C)O)[C@@H](C)CC)C(=O)N[C@@H](CC(N)=O)C(=O)NCC(=O)NCC(=O)N1CCC[C@H]1C(=O)N[C@@H](CO)C(=O)N[C@@H](CCCCN)C(=O)N[C@@H](CCC(=O)O)C(=O)N[C@H](C(=O)N[C@H](C(=O)N[C@@H](CO)C(=O)O)[C@@H](C)CC)[C@@H](C)CC [compound 1] | 56 | 69 | 73 |  | GLP/GIP/CT cAMP(RIN) EC50 [4]: 1.9 nM; IC50 [2]: 3 nM; Food Intake % inhibition 180 min [1]: 72%; remaining at 50 min, 30 µM [5]: 99% |
| CC[C@H](C)[C@H](NC(=O)[C@H](CC(C)C)NC(=O)[C@H](Cc1c[nH]c2ccccc12)NC(=O)[C@H](CCC(=O)O)NC(=O)[C@@H](NC(=O)[C@H](Cc1ccccc1)NC(=O)[C@H](CCC(=O)O)NC(=O)[C@H](CCCCN)NC(=O)[C@H](C)NC(=O)[C@H](C)NC(=O)[C@H](CCCCN)NC(=O)[C@H](CCC(=O)O)NC(=O)[C@H](CCC(=O)O)NC(=O)[C@H](CC(C)C)NC(=O)[C@H](Cc1ccc(O)cc1)NC(=O)[C@H](CCC(=O)O)NC(=O)[C@@H](NC(=O)[C@@H](NC(=O)[C@H](CC(=O)O)NC(=O)[C@H](CC(N)=O)NC(=O)[C@@H](NC(=O)[C@H](Cc1ccc(O)cc1)NC(=O)[C@@H](NC(=O)CNC(=O)[C@H](CCC(=O)O)NC(=O)[C@H](C)NC(=O)[C@@H](N)Cc1c[nH]cn1)[C@@H](C)O)[C@@H](C)O)C(C)C)[C@@H](C)O)[C@@H](C)CC)C(N)=O [compound 42] |  |  |  | 0.22 |  |
| HAEGTYTNDVTEYLEEAAKEFIEWLIKGKPKKIRYS-NH2 (C-terminus assumed) [compound 30] |  |  |  | > 1000 |  |
